Measurements as given in patent US20250270246A1, “LINCOSAMIDES AND USES THEREOF” (President and Fellows of Harvard College, priority 2022, published 2025).
In brackets after ≈: the same amount, converted by molar mass. Several values for one entry are separate records, joined by “and”; a condition that tells them apart may be missing. Identical values can stand only once.

Experiments:
[1] = test system: P. aeruginosa ATCC 27853 (HAV#009); experiment: MIC by broth microdilution (CLSI), Chelex 100-treated broth; type: cell-based; conditions: Pseudomonas aeruginosa, ATCC27853; HAV#009, ATCC 27853; CaMHB pre-treated with Chelex 100 ion exchange resin, 24 h
Procedure: Minimum inhibitory concentrations (MICs) were determined by the broth microdilution method following the Clinical and Laboratory Standards Institute (CLSI) guidelines. Test organisms consisted of standard reference strains from the American Type Culture Collection (ATCC; Manassa, VA, USA) and clinical isolates obtained from JMI Laboratories Inc. (North Liberty, IA, USA), Micromyx repository (MMX; Kalamazoo, MI, USA), and Massachusetts Eye and Ear Hospital (Boston, USA). Before the start of the MIC experiment, standard and test compound stock solutions were prepared in dimethyl sulfoxide (DMSO, Aldrich D2650) at a stock concentration of 2,560 μg/mL. The compound concentration range typically employed for each experiment was 64-0.06 μg/mL (2.5% final DMSO concentration). Iboxamycin was used as a comparator in all experiments. All bacterial strains were sub-cultured on blood agar plates (tryptic soy agar with 5% sheep blood, Hardy Diagnostics) and incubated overnight at 35° C. Organisms were suspended in cation-adjusted Mueller-Hinton broth (CaMHB, BD 212322) and optical density was adjusted to 0.5 McFarland standard. Suspensions were further diluted to obtain a final inoculum of 5×10^5 CFU/mL for broth microdilution experiments. The minimum concentration of compound required to inhibit visible bacterial growth after 24 h of incubation was recorded as the MIC in μg/mL. MICs for P. aeruginosa were recorded in cation-adjusted Mueller-Hinton broth which had been pre-treated with Chelex 100 ion exchange resin according to procedures reported in Ito et al. Antimicrob Agents Chemother (2016) 60 (12), 7396-7401.

S. aureus MMX 3035 = experiment: MIC by broth microdilution (CLSI); type: cell-based; conditions: Staphylococcus aureus, MMX3035, 24 h, MMX 3035; CaMHB, 24 h incubation; read-out: MIC S. aureus MMX 3035
Summary of the method: (§1)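 Broth microdilution per CLSI in cation-adjusted Mueller-Hinton broth, inoculum 5×10^5 CFU/mL, compounds 64-0.06 μg/mL with 2.5% final DMSO. The MIC is the lowest concentration preventing visible growth after 24 h, in μg/mL. For P. aeruginosa the broth was pre-treated with Chelex 100 resin.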

[2] = test system: E. coli ATCC 25922 (HAV#006); experiment: MIC by broth microdilution (CLSI); type: cell-based; conditions: Escherichia coli, ATCC25922, 24 h, HAV#006, ATCC 25922; CaMHB, 24 h incubation; read-out: MIC E. coli ATCC 25922
Summary of the method: as §1

[3] = test system: M. catarrhalis ATCC 25238; experiment: MIC by broth microdilution (CLSI); type: cell-based; conditions: Moraxella catarrhalis, ATCC25238, 24 h incubation
Summary of the method: as §1

S. pneumoniae c-ermB = experiment: MIC by broth microdilution (CLSI); type: cell-based; conditions: Streptococcus pneumoniae, 24 h, read-out: MIC S. pneumoniae c-ermB
Summary of the method: as §1

[4] = test system: E. faecalis ATCC 29212 (HAV#005); experiment: MIC by broth microdilution (CLSI); type: cell-based; conditions: Enterococcus faecalis, ATCC29212, 24 h, HAV#005, ATCC 29212; CaMHB, 24 h incubation; read-out: MIC E. faecalis ATCC 29212
Summary of the method: as §1

E. faecium JMI-990536 = experiment: MIC by broth microdilution (CLSI); type: cell-based; conditions: Enterococcus faecium, JMI990536, 24 h, JMI-990536; CaMHB, 24 h incubation; read-out: MIC E. faecium JMI-990536
Summary of the method: as §1

K. pneumoniae JMI-991193 = experiment: MIC by broth microdilution (CLSI); type: cell-based; conditions: Klebsiella pneumoniae, JMI991193, 24 h, JMI-991193; CaMHB, 24 h incubation; read-out: MIC K. pneumoniae JMI-991193
Summary of the method: as §1

[5] = test system: S. aureus ATCC 29213 (HAV#001); experiment: MIC by broth microdilution (CLSI); type: cell-based; conditions: Staphylococcus aureus, ATCC29213, 24 h, HAV#001, ATCC 29213; CaMHB, 24 h incubation; read-out: MIC S. aureus ATCC 29213
Summary of the method: as §1

S. aureus Clinical (cfr) = experiment: MIC by broth microdilution (CLSI); type: cell-based; conditions: Staphylococcus aureus, 24 h, Clinical (cfr); CaMHB, 24 h incubation; read-out: MIC S. aureus Clinical (cfr)
Summary of the method: as §1

H. influenzae ATCC 49247 = experiment: MIC by broth microdilution (CLSI); type: cell-based; conditions: Haemophilus influenzae, ATCC49247; ATCC 49247; 24 h incubation; read-out: MIC H. influenzae ATCC 49247
Summary of the method: as §1

E. coli lptD mutant = experiment: MIC by broth microdilution (CLSI); type: cell-based; conditions: Escherichia coli, 24 h, read-out: MIC E. coli lptD mutant, lptD mutant / ΔlptD mutant; CaMHB, 24 h incubation
Summary of the method: as §1

[6] = from C=CCC[C@@H](NC(=O)[C@@H]1[C@@H]2OCC[C@@H](CC(C)C)C[C@H]2CN1C(=O)OC(C)(C)C)[C@H]1O[C@H](SCC=C)[C@H](O)[C@@H](O)[C@H]1O; rcm bond; 10-membered ring; Grubbs II (20 mol%)/benzoquinone; then HCl/MeOH; toluene; 0.2 mM; 0.33 h; 3 steps

Structure (SMILES): CC(C)C[C@@H]1CCO[C@@H]2[C@H](CN[C@@H]2C(=O)N[C@H]2[C@H]3O[C@H](SCCCC/C=C\[C@H]2C)[C@H](O)[C@@H](O)[C@H]3O)C1 [FSA1610015, (4S,5aS,8S,8aR)-4-isobutyl-N-((1R,9R,10R,11R,12R,13S,14R,Z)-12,13,14-trihydroxy-9-methyl-15-oxa-2-thiabicyclo[9.3.1]pentadec-7-en-10-yl) octahydro-2H-oxepino[2,3-c]pyrrole-8-carboxamide]
- MIC [1]: 4 µg/mL (≈ 7.59 µM)
- MIC (S. aureus MMX 3035): 8 µg/mL (≈ 15.2 µM)
- MIC [2]: 8 µg/mL (≈ 15.2 µM)
- MIC [3]: 1 µg/mL (≈ 1.9 µM)
- MIC (S. pneumoniae c-ermB): 4 µg/mL (≈ 7.59 µM)
- MIC [4]: 0.25 µg/mL (≈ 0.475 µM)
- MIC (E. faecium JMI-990536): 1 µg/mL (≈ 1.9 µM)
- MIC (K. pneumoniae JMI-991193): 32 µg/mL (≈ 60.8 µM)
- MIC [5]: 0.125 µg/mL (≈ 0.237 µM)
- MIC (S. aureus Clinical (cfr)): 2 µg/mL (≈ 3.8 µM)
- MIC (H. influenzae ATCC 49247): ≤ 0.06 µg/mL
- MIC (E. coli lptD mutant): 1 µg/mL (≈ 1.9 µM)

Structure (SMILES): CC(C)C[C@@H]1CCO[C@@H]2[C@H](CN[C@@H]2C(=O)N[C@H]2[C@H]3O[C@H](SCCCC/C=C/[C@H]2C)[C@H](O)[C@@H](O)[C@H]3O)C1 [FSA1610016, (4S,5aS,8S,8aR)-4-isobutyl-N-((1R,9R,10R,11R,12R,13S,14R,E)-12,13,14-trihydroxy-9-methyl-15-oxa-2-thiabicyclo[9.3.1]pentadec-7-en-10-yl) octahydro-2H-oxepino[2,3-c]pyrrole-8-carboxamide]
- MIC [1]: 4 µg/mL (≈ 7.59 µM)
- MIC (S. aureus MMX 3035): 16 µg/mL (≈ 30.4 µM)
- MIC [2]: 16 µg/mL (≈ 30.4 µM)
- MIC [3]: 2 µg/mL (≈ 3.8 µM)
- MIC (S. pneumoniae c-ermB): 8 µg/mL (≈ 15.2 µM)
- MIC [4]: 0.25 µg/mL (≈ 0.475 µM)
- MIC (E. faecium JMI-990536): 4 µg/mL (≈ 7.59 µM)
- MIC (K. pneumoniae JMI-991193): 32 µg/mL (≈ 60.8 µM)
- MIC [5]: 0.125 µg/mL (≈ 0.237 µM)
- MIC (S. aureus Clinical (cfr)): 16 µg/mL (≈ 30.4 µM)
- MIC (H. influenzae ATCC 49247): ≤ 0.06 µg/mL
- MIC (E. coli lptD mutant): 2 µg/mL (≈ 3.8 µM)

Structure (SMILES): CC(C)C[C@@H]1CCO[C@@H]2[C@H](CN[C@@H]2C(=O)N[C@H]2[C@H]3O[C@H](SCCCC/C=C/[C@@H]2C)[C@H](O)[C@@H](O)[C@H]3O)C1 [FSA1610014, (4S,5aS,8S,8aR)-4-isobutyl-N-((1R,9S,10R,11R,12R,13S,14R,E)-12,13,14-trihydroxy-9-methyl-15-oxa-2-thiabicyclo[9.3.1]pentadec-7-en-10-yl) octahydro-2H-oxepino[2,3-c]pyrrole-8-carboxamide]
- MIC [1]: 32 µg/mL (≈ 60.8 µM)
- MIC (S. aureus MMX 3035): 32 µg/mL (≈ 60.8 µM)
- MIC [2]: > 32 µg/mL
- MIC [3]: 16 µg/mL (≈ 30.4 µM)
- MIC (S. pneumoniae c-ermB): 16 µg/mL (≈ 30.4 µM)
- MIC [4]: 2 µg/mL (≈ 3.8 µM)
- MIC (E. faecium JMI-990536): 32 µg/mL (≈ 60.8 µM)
- MIC (K. pneumoniae JMI-991193): > 32 µg/mL
- MIC [5]: 0.5 µg/mL (≈ 0.949 µM)
- MIC (S. aureus Clinical (cfr)): 32 µg/mL (≈ 60.8 µM)
- MIC (H. influenzae ATCC 49247): 0.25 µg/mL (≈ 0.475 µM)
- MIC (E. coli lptD mutant): 16 µg/mL (≈ 30.4 µM)

Structure (SMILES): CC(C)C[C@@H]1CCO[C@@H]2[C@@H](C1)CN(C(=O)OC(C)(C)C)[C@@H]2C(=O)N[C@@H]1CCC=CCS[C@H]2O[C@H]1[C@H](O)[C@H](O)[C@H]2O
- ring closure, yield after HPLC [6]: 1.3% and 1.7%
